Experimental data reported in patent US11642548B2, “Sterilization method and sterilization apparatus” (Ushio Denki Kabushiki Kaisha, priority 2017, dated 2023).

How the values were obtained:
[1] = Test Example 3: odor of amino acid aqueous solutions before and after irradiation of ultraviolet at a peak wavelength of 222 nm (sensory evaluation); assay type: physicochemical; details: for Comparison with smells in Test example 1: odor after 222 nm UV irradiation of the solution compared with odor of UV-irradiated human hand, sensory evaluation by six assessors; for Odor before irradiation: 3 mL aqueous solution of amino acid in petri dish, before ultraviolet irradiation
Experimental: Looking at amino acids that form the proteins in the epidermis, then changes in the odor before and after irradiation of ultraviolet at a peak wavelength of 222 nm with respect to the following eighteen types of amino acids are examined More specifically, a 3 mL aqueous solution of each type of amino acid was put in a φ40 petri dish, and using the same light source as that of the ultraviolet irradiation apparatus 1, irradiated with ultraviolet with an irradiance of 3.8 mW/cm^2 for an irradiation period of 30 seconds. The petri dish and the light source were spaced apart by 8 cm. The eighteen types of amino acids were: Cystine, glutamic acid, leucine, arginine, serine, threonine, aspartic acid, proline, glycine, valine, alanine, phenylalanine, isoleucine, tyrosine, lysine, histidine, methionine, and tryptophan. These eighteen amino acids are all known as the substances that form proteins contained in the epidermis.
The comparison with the odor in Test Example 1 was made by sensory evaluation performed by the six assessors M1, M2, M3, M4, M5, and M6.

[2] = tested on: region irradiated with ultraviolet (palm of the right hand); assay: Test Example 4: application of amino acid aqueous solution to palm irradiated with 222 nm ultraviolet, assessment of change in smell; assay type: in vivo, human; details: 1 mM aqueous solution sprayed and rubbed in on palm irradiated with 222 nm UV, 3.8 mW/cm^2, 30 seconds, smell of burning hair before application, Assessor M1, other five gave the same results
From the text: Similarly to the method of Test Example 1, using the ultraviolet irradiation apparatus 1 shown in FIG. 1, the palm of the right hand of each of six assessors M1, M2, M3, M4, M5, and M6 was irradiated with ultraviolet, with a peak wavelength at 222 nm and an irradiance of 3.8 mW/cm^2 for an irradiation period of 30 seconds.
After that, each aqueous solution of the eighteen types of amino acids used in Test Example 3 (cystine, glutamic acid, leucine, arginine, serine, threonine, aspartic acid, proline, glycine, valine, alanine, phenylalanine, isoleucine, tyrosine, lysine, histidine, methionine, and tryptophan) was applied to the region irradiated with ultraviolet (molar concentration: 1 mM). More specifically, each aqueous solution was sprayed and rubbed in with the palm of the hand. This was followed by an assessment of any changes in the smell before and after application of each aqueous solution.

Compound	Comparison with smells in Test example 1 [1]	Smell after application of amino acid solution [2]	Odor before irradiation [1]	also measured
C[C@H](N)C(=O)O [Alanine, alanine]	Different			
N=C(N)NCCC[C@H](N)C(=O)O [Arginine, arginine]	Different	Smell disappeared		Smell after application of amino acid solution ([2]; listed as arginine): no odor was detected
N[C@@H](CC(=O)O)C(=O)O [Aspartic acid, aspartic acid]	Different	Smell disappeared	No smell	Smell after application of amino acid solution ([2]; listed as aspartic acid): no odor was detected
N[C@@H](CSSC[C@H](N)C(=O)O)C(=O)O [Cystine]	Different		No smell	
N[C@@H](CCC(=O)O)C(=O)O [Glutamic acid, glutamic acid]	Different	Smell disappeared	Slight smell	Smell after application of amino acid solution ([2]; listed as glutamic acid): no odor was detected
NCC(=O)O [Glycine, glycine]	Different	Smell disappeared	No smell	Smell after application of amino acid solution ([2]; listed as glycine): no odor was detected
N[C@@H](Cc1c[nH]cn1)C(=O)O [Histidine, histidine]	Different		No smell	
CC[C@H](C)[C@H](N)C(=O)O [Isoleucine, isoleucine]	substantially the same	Smell disappeared		Smell after application of amino acid solution ([2]; listed as isoleucine): no odor was detected
CC(C)C[C@H](N)C(=O)O [Leucine, leucine]	substantially the same	Smell disappeared		Smell after application of amino acid solution ([2]; listed as leucine): no odor was detected
NCCCC[C@H](N)C(=O)O [Lysine, lysine]	Different			
CSCC[C@H](N)C(=O)O [Methionine, methionine]	substantially the same	Smell disappeared		Smell after application of amino acid solution ([2]; listed as methionine): no odor was detected
N[C@@H](Cc1ccccc1)C(=O)O [Phenylalanine, phenylalanine]	Different			
O=C(O)[C@@H]1CCCN1 [Proline, proline]	Different	Smell disappeared	No smell	Smell after application of amino acid solution ([2]; listed as proline): no odor was detected; Odor after irradiation ([1]; 3 mL aqueous solution in petri dish, UV peak 222 nm, 3.8 mW/cm^2, 30 seconds, 8 cm from light source): Smell like lysine
N[C@@H](CO)C(=O)O [Serine, serine]	Different	Smell disappeared	No smell	Smell after application of amino acid solution ([2]; listed as serine): no odor was detected
C[C@@H](O)[C@H](N)C(=O)O [Threonine, threonine]	Different		No smell	
N[C@@H](Cc1ccc(O)cc1)C(=O)O [Tyrosine, tyrosine]	Different		No smell	
CC(C)[C@H](N)C(=O)O [Valine, valine]	substantially the same	Smell disappeared		Smell after application of amino acid solution ([2]; listed as valine): no odor was detected
